# Tests used:
# Assay in all cases: SIK1, SIK2, and SIK3 inhibition test
# [1] = target: Serine/threonine-protein kinase SIK1 (Homo sapiens, UniProt P57059)
# Experimental: (§1) The inhibitory activity of the compound for SIK1, SIK2, and SIK3 enzymes was assayed by measuring the amount of ADP, an enzyme reaction product, with ADP-Glo™ Max Assay (Promega). Enzymes, specifically, GST-tagged SIK1 (Carna Biosciences, Inc.), GST-tagged SIK2 (Carna Biosciences, Inc.), and GST-tagged SIK3 (SignalChem) were prepared in a reaction buffer (15 mM tris-hydrochloric acid buffer (pH 7.5), 0.001% Triton X-100, 0.01% BSA) so that the final concentration would be 20 nM, 3 nM, and 100 nM. Enzyme solutions were thus formed. In a reaction buffer, AMARA Peptide (SignalChem) as a substrate with a final concentration of 200 μM (SIK1, SIK2) or 100 μM (SIK3), ATP (Promega) with a final concentration of 1 mM, and magnesium chloride with a final concentration of 5 mM were prepared. Substrate solutions were thus formed. The enzyme solution, the substrate solution, and a DMSO solution of a concentration of the test compound were mixed together and reacted at room temperature for 2 hours. After the reaction, ADP-Glo™ Reagent (Promega) was added, and the reaction was performed at room temperature for 30 minutes. Subsequently, ADP-Glo™ Max Detection Reagent (Promega) was added, and the reaction was performed at room temperature for 30 minutes. The emission by the luciferase reaction was measured with PHERAstar FSX (BMG LABTECH).
# [2] = target: Serine/threonine-protein kinase SIK2 (Homo sapiens, UniProt Q9H0K1)
# Experimental: as §1
# [3] = target: Serine/threonine-protein kinase SIK3 (Homo sapiens, UniProt Q9Y2K2)
# Experimental: as §1
# Chain of Serine/threonine-protein kinase SIK3 (Q9Y2K2 whole entry): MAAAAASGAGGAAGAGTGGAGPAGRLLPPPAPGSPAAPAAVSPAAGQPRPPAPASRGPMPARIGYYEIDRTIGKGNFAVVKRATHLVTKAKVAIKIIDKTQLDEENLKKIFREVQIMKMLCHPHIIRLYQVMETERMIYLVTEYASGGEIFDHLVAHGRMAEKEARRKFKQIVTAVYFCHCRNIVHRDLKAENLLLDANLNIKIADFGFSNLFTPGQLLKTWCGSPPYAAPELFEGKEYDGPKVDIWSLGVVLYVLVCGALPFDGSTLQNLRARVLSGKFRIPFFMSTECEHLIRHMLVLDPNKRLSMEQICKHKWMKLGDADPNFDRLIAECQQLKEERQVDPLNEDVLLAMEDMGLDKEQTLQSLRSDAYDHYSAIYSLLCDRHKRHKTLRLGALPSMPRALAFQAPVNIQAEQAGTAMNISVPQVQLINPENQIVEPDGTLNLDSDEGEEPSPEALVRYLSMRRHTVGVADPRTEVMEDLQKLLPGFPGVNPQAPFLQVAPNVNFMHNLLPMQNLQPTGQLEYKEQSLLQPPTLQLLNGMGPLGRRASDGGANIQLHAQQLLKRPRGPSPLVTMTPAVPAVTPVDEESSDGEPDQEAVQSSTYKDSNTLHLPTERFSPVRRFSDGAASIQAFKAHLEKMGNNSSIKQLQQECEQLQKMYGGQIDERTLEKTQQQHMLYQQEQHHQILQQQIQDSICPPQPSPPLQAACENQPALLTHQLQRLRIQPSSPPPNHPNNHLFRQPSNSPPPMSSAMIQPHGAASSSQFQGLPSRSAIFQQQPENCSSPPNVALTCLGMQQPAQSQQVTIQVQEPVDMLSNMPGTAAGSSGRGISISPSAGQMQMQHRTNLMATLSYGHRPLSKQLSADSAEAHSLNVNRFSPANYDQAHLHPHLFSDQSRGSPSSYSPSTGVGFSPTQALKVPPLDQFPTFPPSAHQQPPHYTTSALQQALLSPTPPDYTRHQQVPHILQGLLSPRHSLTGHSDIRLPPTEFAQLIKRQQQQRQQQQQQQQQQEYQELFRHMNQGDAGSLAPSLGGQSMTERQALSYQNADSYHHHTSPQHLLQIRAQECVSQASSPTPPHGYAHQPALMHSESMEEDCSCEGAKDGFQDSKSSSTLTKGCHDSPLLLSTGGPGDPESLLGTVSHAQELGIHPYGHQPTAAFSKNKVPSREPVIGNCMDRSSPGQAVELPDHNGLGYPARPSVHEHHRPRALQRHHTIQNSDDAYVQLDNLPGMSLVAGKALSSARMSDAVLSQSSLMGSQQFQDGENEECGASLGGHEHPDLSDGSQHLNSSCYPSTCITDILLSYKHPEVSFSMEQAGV
# Chain of Serine/threonine-protein kinase SIK1 (P57059 whole entry): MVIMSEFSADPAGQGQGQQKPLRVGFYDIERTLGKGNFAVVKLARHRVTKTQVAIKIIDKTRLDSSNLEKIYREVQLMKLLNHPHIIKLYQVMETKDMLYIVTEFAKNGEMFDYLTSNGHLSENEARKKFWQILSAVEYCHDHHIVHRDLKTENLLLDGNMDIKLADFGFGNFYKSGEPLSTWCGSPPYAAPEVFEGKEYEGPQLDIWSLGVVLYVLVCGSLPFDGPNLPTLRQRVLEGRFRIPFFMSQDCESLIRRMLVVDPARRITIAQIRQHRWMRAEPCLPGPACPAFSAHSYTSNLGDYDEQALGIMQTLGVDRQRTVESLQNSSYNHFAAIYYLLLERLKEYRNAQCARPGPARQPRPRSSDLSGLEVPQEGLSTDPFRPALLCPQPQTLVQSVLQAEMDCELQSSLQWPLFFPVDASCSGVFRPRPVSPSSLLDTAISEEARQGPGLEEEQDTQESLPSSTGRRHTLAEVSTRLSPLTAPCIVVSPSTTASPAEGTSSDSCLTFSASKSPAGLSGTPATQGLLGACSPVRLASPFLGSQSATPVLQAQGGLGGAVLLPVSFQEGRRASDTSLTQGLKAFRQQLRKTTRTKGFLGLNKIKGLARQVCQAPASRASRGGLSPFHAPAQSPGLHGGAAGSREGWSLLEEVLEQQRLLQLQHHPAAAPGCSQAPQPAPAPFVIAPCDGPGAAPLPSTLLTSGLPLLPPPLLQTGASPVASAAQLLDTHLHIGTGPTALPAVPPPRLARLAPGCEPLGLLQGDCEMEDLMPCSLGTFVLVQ
# Chain of Serine/threonine-protein kinase SIK2 (Q9H0K1 whole entry): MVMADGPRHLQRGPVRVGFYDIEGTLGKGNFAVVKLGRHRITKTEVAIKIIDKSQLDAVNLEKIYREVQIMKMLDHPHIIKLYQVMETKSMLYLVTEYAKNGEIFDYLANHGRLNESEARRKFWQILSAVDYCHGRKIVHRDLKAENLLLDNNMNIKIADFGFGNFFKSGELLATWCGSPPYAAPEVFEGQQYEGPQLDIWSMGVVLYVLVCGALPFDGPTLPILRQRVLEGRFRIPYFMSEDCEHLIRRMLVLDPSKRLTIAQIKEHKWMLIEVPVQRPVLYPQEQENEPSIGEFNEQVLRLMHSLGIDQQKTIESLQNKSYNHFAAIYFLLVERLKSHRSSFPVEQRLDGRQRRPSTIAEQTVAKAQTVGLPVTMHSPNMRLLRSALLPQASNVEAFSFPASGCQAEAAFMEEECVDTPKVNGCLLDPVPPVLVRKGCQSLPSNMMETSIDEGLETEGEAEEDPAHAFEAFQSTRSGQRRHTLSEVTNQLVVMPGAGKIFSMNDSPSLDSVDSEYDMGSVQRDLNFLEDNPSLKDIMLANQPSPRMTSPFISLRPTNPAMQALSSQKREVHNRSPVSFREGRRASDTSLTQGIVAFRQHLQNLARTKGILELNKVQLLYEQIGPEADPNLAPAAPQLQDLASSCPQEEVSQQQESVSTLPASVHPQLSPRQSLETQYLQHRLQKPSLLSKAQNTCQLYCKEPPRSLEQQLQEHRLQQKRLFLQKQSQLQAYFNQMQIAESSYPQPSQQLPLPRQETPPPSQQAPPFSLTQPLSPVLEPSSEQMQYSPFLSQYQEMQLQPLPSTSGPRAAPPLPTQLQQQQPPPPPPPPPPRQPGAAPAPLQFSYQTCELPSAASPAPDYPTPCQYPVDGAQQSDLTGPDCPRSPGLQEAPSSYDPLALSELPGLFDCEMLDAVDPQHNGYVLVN
Compound,IC50 [1] [nM],IC50 [2] [nM],IC50 [3] [nM]
"COc1cc(-c2c3c(OC(F)F)cc(-c4cnn(C)c4)cc3nn2C)cc(OC(F)F)c1C(=O)N1CC(O)(C(F)(F)F)C1 [US20260062387, Example 62]",7.9,3.9,10.4
"COc1cc(-c2c3c(OC(F)F)cc(-c4cn(C)nn4)cc3nn2C)cc(OC(F)F)c1C(=O)N1CC(O)(C(F)F)C1 [US20260062387, Example 64]",,9,15.8
"COc1cc(-c2c3c(C(F)F)cc(-c4cnn(CCC(=O)N(C)C)c4)cc3nn2C)cc(OC(F)F)c1C(=O)N1CC(O)(C(F)(F)F)C1 [US20260062387, Example 65]",9.6,5.6,3
"COc1cc(-c2c3c(C(F)F)cc(-c4cnn(C[C@@H](C)O)c4)cc3nn2C)cc(OC(F)F)c1C(=O)N1CC(O)(C(F)(F)F)C1 [US20260062387, Example 71]",3,6.1,6.8
"COc1cc(-c2c3c(C(F)F)cc(-c4cnn(C[C@H](C)O)c4)cc3nn2C)cc(OC(F)F)c1C(=O)N1CC(O)(C(F)(F)F)C1 [US20260062387, Example 72]",3.9,5.6,

# — BindingDB's records for patent US20260062387 (Mitsubishi Tanabe Pharma, 2026)
